Positions count from the first letter of the chain named. Numbers in names are those of the source.
What was measured:
ParBP1 = molecular target: T1, ParBP1 (Punavirus P1, UniProt Q38420); assay: membrane-spotting assay, radiolabelled nucleotide; assay type: binding; conditions: labelled compound
T1 sequence (Q38420 1-333): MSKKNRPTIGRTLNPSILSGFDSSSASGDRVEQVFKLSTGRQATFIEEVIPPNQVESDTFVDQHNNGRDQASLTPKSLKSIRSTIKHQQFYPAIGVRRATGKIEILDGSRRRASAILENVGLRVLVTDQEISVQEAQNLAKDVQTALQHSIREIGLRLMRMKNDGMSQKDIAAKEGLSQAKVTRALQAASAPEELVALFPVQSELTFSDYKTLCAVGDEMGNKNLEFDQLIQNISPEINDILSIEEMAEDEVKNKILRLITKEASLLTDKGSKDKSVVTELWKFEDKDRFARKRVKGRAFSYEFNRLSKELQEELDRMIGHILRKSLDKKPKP

ParBBsu (full-length) = molecular target: T2, ParBBsu (full-length) (Bacillus subtilis, UniProt P26497); assay: isothermal titration calorimetry; assay type: binding
T2 sequence (P26497 1-282): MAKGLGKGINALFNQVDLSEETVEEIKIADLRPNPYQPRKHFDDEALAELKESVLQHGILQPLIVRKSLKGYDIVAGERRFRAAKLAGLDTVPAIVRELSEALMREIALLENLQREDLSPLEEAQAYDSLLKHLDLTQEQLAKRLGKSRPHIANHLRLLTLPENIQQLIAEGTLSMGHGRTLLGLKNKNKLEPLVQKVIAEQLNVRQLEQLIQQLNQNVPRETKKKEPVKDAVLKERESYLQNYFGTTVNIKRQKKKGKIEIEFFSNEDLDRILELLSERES

ParBF = molecular target: T3, ParBF (Escherichia coli, UniProt P62558); assay: membrane-spotting assay, radiolabelled nucleotide; assay type: binding; conditions: labelled compound
T3 sequence (P62558 1-323): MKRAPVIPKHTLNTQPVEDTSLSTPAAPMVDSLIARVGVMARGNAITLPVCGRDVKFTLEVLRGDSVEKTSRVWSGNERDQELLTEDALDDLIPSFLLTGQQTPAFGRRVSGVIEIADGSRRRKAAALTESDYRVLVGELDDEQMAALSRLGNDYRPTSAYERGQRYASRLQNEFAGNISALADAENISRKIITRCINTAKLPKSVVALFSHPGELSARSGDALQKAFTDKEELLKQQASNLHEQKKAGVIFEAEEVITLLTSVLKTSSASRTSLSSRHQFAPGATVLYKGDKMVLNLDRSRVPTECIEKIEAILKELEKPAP

crystal structure = molecular target: the molecule itself; assay: crystal structure
cross-linking = molecular target: the molecule itself; assay: cross-linking

Nc1ccn([C@@H]2O[C@H](COP(=O)(O)OP(=O)(O)OP(=O)(O)O)[C@@H](O)[C@H]2O)c(=O)n1 [CTP]
membrane-spotting assay, radiolabelled nucleotide (ParBP1): plasmid-encoded ParB proteins (F plasmid ParBF and P1 prophage ParBP1)
Kd (ParBBsu (full-length)): 10 to 50 µM
membrane-spotting assay, radiolabelled nucleotide (ParBF): CTP was also bound by plasmid-encoded ParB proteins (F plasmid ParBF

B1: ParBBsu(21-218) (domain or fragment)
chain: ETVEEIKIADLRPNPYQPRKHFDDEALAELKESVLQHGILQPLIVRKSLKGYDIVAGERRFRAAKLAGLDTVPAIVRELSEALMREIALLENLQREDLSPLEEAQAYDSLLKHLDLTQEQLAKRLGKSRPHIANHLRLLTLPENIQQLIAEGTLSMGHGRTLLGLKNKNKLEPLVQKVIAEQLNVRQLEQLIQQLNQN
binding result (crystal structure): binds

B2: ParBBsu(T22C) (natural protein)
chain: T2 sequence (P26497 1-282) with T22C
binding result (cross-linking): binds

B3: ParBBsu(T22C, S278C) (natural protein)
chain: T2 sequence (P26497 1-282) with T22C, S278C
stoichiometry N (cross-linking): 2

From publication PMC6927813 (Science (New York, N.Y.), 2019)
